Laboratory results as given in patent US20030176381A1, “Hyaluronic acid in the treatment of cancer” (priority 2002, published 2003).

How the values were obtained:
Format in all cases: cell-based
[1] = test system: HT-1080 human fibrosarcoma cancer cells; experiment: MTT cell proliferation, HT-1080; settings: 48 h
Description: (§1) Cell proliferation was measured using dimethylthiazoldiphenyltetrazolium (MTT) reduction (Mosman et al. J. Immunol. Methods 65:55, 1983). Unless otherwise stated, 100 Al of 5 mg of MTT (Sigma-Aldrich, St. Louis, Mo., USA) dissolved in 1 ml of PBS was added into each well. After 4 h, medium was removed from each well, 1.0 ml of acid-isopropanol (0.04 N HCI in isopropanol) was added and reduced MTT was solubilized by mixing. Absorbency of the reaction product was measured at a wavelength of 570 nm using a multiplate spectrophotometer reader (Elx800 Model, Bio-TEK Instruments Inc., Winooski, Vt., USA).
(§2) Unless stated otherwise 1.0 x 10^5 cells/ml were seeded in 6-well flat-bottom tissue culture plates and were maintained for 48 h at 370 C in a 5% CO2 atmosphere.
(§3) PC-3, LNCAP and Du-145 human prostate cancer cells; MCF-7 human breast cancer cells; HT-1080 human fibrosarcoma cancer cells; B16F1 murine melanoma cells; and, UMUC-3, RT-4, HT-1376 and T-24 human bladder cancer cells were incubated with 0.8, 8.0 and 80 μg/ml of 5.0-7.5 x 10^5 Da HA (Table 2).

[2] = test system: MCF-7 human breast cancer cells; experiment: MTT cell proliferation, MCF-7; settings: MCF-7 (2.5 X 10^5 cells/ml)
[3] = test system: LNCaP human prostate cancer cells; experiment: MTT cell proliferation, LNCaP; settings: 48 h
Description: as §1, §2, §3
(§4) PC-3. LNCaP and Du-145 human prostate cancer cells were incubated with 8.0 jg/ml of 5.0-7.5 x 105 Da HA or of <1.5 x 10^4 Da HA (Table 3).
(§5) CD44 expression and the inhibition of proliferation by 5.0-7.5 x 10^5 Da HA were measured using Jurkat T cell leukemia cells; MCF-7 human breast cancer cells; RT-4, T-24, HT-1376 and UMUC-3 human bladder cancer cells; and, PC-3, Du-145 and LNCaP prostate cancer cells (Table 8)

[4] = test system: T-24 human bladder cancer cells; experiment: MTT cell proliferation, T-24
Description: as §1, §2, §3
(§6) Unless stated otherwise 2.0 x 10^4 cells/ml were seeded in 24-well plates and were maintained for 48 h at 370 C in a 5% CO2 atmosphere. MTT was used at 50 μl per well.
(§7) T-24 human bladder cancer cells, PC-3 and Du-145 human prostate cancer cells, and MCF-7 human breast cancer cell were incubated with saline or with 80.0 jg/ml of 5.0-7.5 x 105 Da HA +1.0 μg/ml of M-DNA (Table 4).
HT-1376, RT-4 and T-24 human bladder cancer cells were incubated with 0.8 pg/ml of 5.0-7.5 x 10^5 Da HA +1.0 ug/ml of MCC (Table 5).
as §5

[5] = test system: RT-4 human bladder cancer cells; experiment: MTT cell proliferation, RT-4
Description: Cell proliferation was measured using dimethylthiazoldiphenyltetrazolium (MTT) reduction (Mosman et al. J. Immunol. Methods 65:55, 1983). Unless otherwise stated, 100 Al of 5 mg of MTT (Sigma-Aldrich, St. Louis, Mo., USA) dissolved in 1 ml of PBS was added into each well. After 4 h, medium was removed from each well, 1.0 ml of acid-isopropanol (0.04 N HCI in isopropanol) was added and reduced MTT was solubilized by mixing. Absorbency of the reaction product was measured at a wavelength of 570 nm using a multiplate spectrophotometer reader (Elx800 Model, Bio-TEK Instruments Inc., Winooski, Vt., USA). […] PC-3, LNCAP and Du-145 human prostate cancer cells; MCF-7 human breast cancer cells; HT-1080 human fibrosarcoma cancer cells; B16F1 murine melanoma cells; and, UMUC-3, RT-4, HT-1376 and T-24 human bladder cancer cells were incubated with 0.8, 8.0 and 80 μg/ml of 5.0-7.5 x 10^5 Da HA (Table 2). […] MTT was used at 50 μl per well. HT-1376, RT-4 and T-24 human bladder cancer cells were incubated with 0.8 pg/ml of 5.0-7.5 x 10^5 Da HA +1.0 ug/ml of MCC (Table 5). […] MCF-7 human breast cancer cells; RT-4, T-24, HT-1376 and UMUC-3 human bladder cancer cells; and, PC-3, Du-145 and LNCaP prostate cancer cells (Table 8)

[6] = test system: UMUC-3 human bladder cancer cells; experiment: MTT cell proliferation, UMUC-3; settings: 48 h
Description: as §1, §2, §3, §5

[7] = test system: Du-145 human prostate cancer cells; experiment: MTT cell proliferation, Du-145
Description: as §1, §2, §3, §4, §6, §7, §5

[8] = test system: MCF-7 human breast cancer cells; experiment: MTT cell proliferation, MCF-7
Description: as §1, §2, §3, §6, §7
MTT was used at 50 µl per well.
Example 8 s HA potentiation of the anti-neoplastic effect ofchemotherapeutic drugs RT-4 human bladder cancer cells and MCF-7 human breast cancer cells were incubated as in Example 6 with 0.0, 0.008 or 0.08 pg/ml of 5.0-7.5 x 10^5 Da HA +0.1 jg/ml of CIS, +1.0 jg/ml of 5-FU or +10 jig/ml of 5-FU (Table 7).
as §5

[9] = test system: B16F1 murine melanoma cells; experiment: MTT cell proliferation, B16F1; settings: 48 h
Description: as §1, §2, §3

[10] = HA 80.0 μg/ml alone (+ saline), 24-well, Example 6
[11] = HA at 0.8 μg/ml alone (+ saline), 24-well, Example 6
[12] = HA 0.008 μg/ml alone (+ saline)

Substance: Hyaluronic acid [5.0-7.5 × 10^5 Da HA]
- % INHIBITION of cell proliferation ([1]; HA 0.8 μg/ml): 4%
- % INHIBITION of cell proliferation ([1]; HA 8.0 μg/ml): 4%
- % INHIBITION of cell proliferation ([1]; HA 80.0 μg/ml): 36%
- % INHIBITION of cell proliferation ([2]; HA 0.01 μg/ml alone): 6%
- % INHIBITION of cell proliferation ([2]; HA 0.1 μg/ml alone): 5%
- % INHIBITION of cell proliferation ([3]; HA 0.8 μg/ml): 7%
- % INHIBITION of cell proliferation ([3]; HA 8.0 μg/ml, listed as 0.5-7.5 × 10^5 Da HA): 13%
- % INHIBITION of cell proliferation ([4]; HA 0.8 μg/ml, 48 h): 10%
- % INHIBITION of cell proliferation ([4]; HA 8.0 μg/ml, 48 h): 8%
- % INHIBITION of cell proliferation [4, 10]: 0%
- % INHIBITION of cell proliferation ([4]; HA 80.0 μg/ml, 48 h): 0%
- % INHIBITION of cell proliferation [4, 11]: 8%
- % INHIBITION of cell proliferation [5, 12]: 0%
- % INHIBITION of cell proliferation ([5]; HA 0.08 μg/ml alone (+ saline)): 0%
- % INHIBITION of cell proliferation ([5]; HA 0.8 μg/ml, 48 h): 12%
- % INHIBITION of cell proliferation ([5]; HA 8.0 μg/ml, 48 h): 13%
- % INHIBITION of cell proliferation ([5]; HA 80.0 μg/ml, 48 h): 5%
- % INHIBITION of cell proliferation [5, 11]: 13%
- % INHIBITION of cell proliferation ([6]; HA 0.8 μg/ml): 10%
- % INHIBITION of cell proliferation ([6]; HA 8.0 μg/ml): 10%
- % INHIBITION of cell proliferation ([6]; HA 80.0 μg/ml): 2%
- % INHIBITION of cell proliferation ([7]; HA 0.8 μg/ml, 48 h): 6%
- % INHIBITION of cell proliferation ([7]; HA 8.0 μg/ml, 48 h, listed as 0.5-7.5 × 10^5 Da HA): 15%
- % INHIBITION of cell proliferation [7, 10]: 38%
- % INHIBITION of cell proliferation ([7]; HA 80.0 μg/ml, 48 h): 38%
- % INHIBITION of cell proliferation [8, 12]: 12%
- % INHIBITION of cell proliferation ([8]; HA 0.08 μg/ml alone (+ saline)): 12%
- % INHIBITION of cell proliferation ([8]; HA 0.8 μg/ml, 48 h): 19%
- % INHIBITION of cell proliferation ([8]; HA 8.0 μg/ml, 48 h): 24%
- % INHIBITION of cell proliferation [8, 10]: 35%
- % INHIBITION of cell proliferation ([8]; HA 80.0 μg/ml, 48 h): 35%
- % INHIBITION of cell proliferation ([9]; HA 0.8 μg/ml): 20%
- % INHIBITION of cell proliferation ([9]; HA 8.0 μg/ml): 20%
- % INHIBITION of cell proliferation ([9]; HA 80.0 μg/ml): 30%
